This note sets out measurements from patent publication US20260240895A1, “BETA-GLUCAN PARTICLES FOR TRAINED IMMUNITY” (THE PROVOST, FELLOWS, FOUNDATION SCHOLARS, AND THE OTHER …, priority 2022, published 2026).

Read-outs that look alike come from different tables or passages of the source.

The subject of test [1] is human monocytes / monocyte-derived macrophages (hMDM). In words: Human monocyte training assay: cytokine ELISA after restimulation of monocyte-derived macrophages. The class given is cell-based. In general terms: ELISA stands for enzyme-linked immunosorbent assay.
In test [2] the target is T1, Dectin-1 (Homo sapiens, UniProt Q9BXN2).
T1 construct: incubated with anti-Dectin-1-PE (clone 15E2, Biolegend) antibody for Dectin-1 surface staining; endogenous in cells; host or cells: primary human monocytes (PBMC from buffy coats)
T1 sequence (Q9BXN2 1-247): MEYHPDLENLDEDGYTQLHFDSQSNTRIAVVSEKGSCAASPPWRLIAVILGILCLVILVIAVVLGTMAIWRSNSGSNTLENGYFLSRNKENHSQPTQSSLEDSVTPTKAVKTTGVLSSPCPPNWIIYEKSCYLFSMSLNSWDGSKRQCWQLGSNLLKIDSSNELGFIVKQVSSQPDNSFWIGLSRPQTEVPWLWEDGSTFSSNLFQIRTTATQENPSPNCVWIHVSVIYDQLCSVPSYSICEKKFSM
In words: Surface Dectin-1 expression on monocytes by flow cytometry. The class given is cell-based. Conditions: CytD 10 μM 1 h before dWGP 100 μg/mL 15 min. How it is done:
To analyse phospho-S6 ribosomal protein activity after β-glucan treatment, PBMCs were isolated as above and resuspended in RPMI-1640 media supplemented with 10% human AB serum (Sigma-Aldrich) at 2×10^6/mL. Cells were first incubated with metabolic inhibitors for 15 min as indicated above. […] After the incubation time, cells were resuspended by vortexing quickly, washed in flow buffer; [PBS-1× (Gibco) supplemented with 5% heat inactivated FBS (Gibco) and 0.1% Sodium azide (Sigma)] and the following flow cytometry staining protocol was applied to all samples with up to 100,000 cells per sample. Cells were stained with fixable viability stain ZombieAqua™ (Biolegend) at the concentration of 1:500 for 15 minutes. Subsequently, samples were washed with flow buffer and incubated with anti-Dectin-1-PE (clone 15E2, Biolegend) antibody for Dectin-1 surface staining, then washed and fixed 20 minutes with IC Fixation Buffer (Invitrogen). Alternatively, cells were incubated with anti-CD14-APC (clone M5E2, Biolegend), anti-CD16-PE-Cy7 (clone 3G8, Biolegend), anti-HLA-DR-BB515 (clone G46-6, BD Bioscience) at a concentration of 1:100 in flow buffer for 30 minutes at 4° C. All cells were subsequently washed with flow buffer and resuspended 20 minutes with IC Fixation Buffer (Invitrogen) for fixation. […]

In test [3] the test system is mTOR (phospho-S6 ribosomal protein). In words: Intracellular phospho-S6 staining by flow cytometry (mTOR activity). In kind it is cell-based, human. The settings on record: 15 min pre-treatment, dWGP 10 μg/mL 2 h. How it is done:
To analyse phospho-S6 ribosomal protein activity after β-glucan treatment, PBMCs were isolated as above and resuspended in RPMI-1640 media supplemented with 10% human AB serum (Sigma-Aldrich) at 2×10^6/mL. Cells were first incubated with metabolic inhibitors for 15 min as indicated above. […] After the incubation time, cells were resuspended by vortexing quickly, washed in flow buffer; [PBS-1× (Gibco) supplemented with 5% heat inactivated FBS (Gibco) and 0.1% Sodium azide (Sigma)] and the following flow cytometry staining protocol was applied to all samples with up to 100,000 cells per sample. Cells were stained with fixable viability stain ZombieAqua™ (Biolegend) at the concentration of 1:500 for 15 minutes. Subsequently, samples were washed with flow buffer and incubated with anti-Dectin-1-PE (clone 15E2, Biolegend) antibody for Dectin-1 surface staining, then washed and fixed 20 minutes with IC Fixation Buffer (Invitrogen). […] All cells were subsequently washed with flow buffer and resuspended 20 minutes with IC Fixation Buffer (Invitrogen) for fixation. Cells were then washed with flow buffer, incubated at 4° C. for 30 minutes with Perm/Wash Buffer (BD Biosciences) containing anti-phospho-S6-PE (Ser235/236) (cloneD57.2.2E, Cell Signaling) at 1:200 for intracellular pS6 staining, and finally washed again with flow buffer. Compensation controls were obtained after staining UltraComp eBeads™ Compensation Beads (Invitrogen) with the appropriate antibodies. Cells were acquired on the BD flow cytometer Canto II with FACSDiva software. Data analysis and flow charts were performed using FlowJo software v.7.6 (TreeStar).

Test [4] addresses T2, Dectin-1b (Homo sapiens, UniProt Q9BXN2).
T2 construct: host or cells: HEK293 (HEK-Blue) NFκB-SEAP reporter cells
T2 sequence (Q9BXN2 1-201 isoform Q9BXN2-2): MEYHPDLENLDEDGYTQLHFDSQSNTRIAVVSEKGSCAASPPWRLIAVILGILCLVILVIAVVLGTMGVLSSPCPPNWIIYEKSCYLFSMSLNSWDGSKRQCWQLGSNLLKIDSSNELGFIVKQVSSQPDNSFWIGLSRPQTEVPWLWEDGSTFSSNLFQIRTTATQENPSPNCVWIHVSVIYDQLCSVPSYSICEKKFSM
In words: hDectin1b-HEK293 NFκB-SEAP reporter cell assay (QuantiBlue). In kind it is cell-based. The settings on record: for blocking of BGP- or dWGP-driven NFκB-SEAP activation: pre-incubation 1 h before BGP or dWGP 100 μg/mL; for NFκB-linked SEAP activity (Dectin-1b activation): β-glucans 1, 10 & 100 μg/mL, 6 h, relative to untreated cells.
Description: SEAP activity in supernatants was measured 6 h post-stimulation and quantified relative to untreated cells (−).
hDectin1b-HEK293 NFκB-SEAP reporter cells were obtained from Invivogen and were cultured according to manufacturer's instructions. Puromycin and HEK-Blue™ CLR Selection (Invivogen) were used as selective antibiotics and cells were cultured using DMEM (4.5 g/L glucose), 10% (v/v) fetal bovine serum (FBS), 100 U/ml penicillin, 100 μg/ml streptomycin, 100 μg/ml Normocin and 2 mM L-glutamine.
hDectin1b-HEK293 NFκB-SEAP reporter cells (Invivogen) were cultured according to manufacturer's instructions. Reporter cell assays were carried out by seeding at 50,000 cells per well in 180 μL in a 96 well flat-bottomed plate and incubating the cells with 20 μL of the indicated agonists overnight. SEAP activity was measured using QUANTI-Blue (Invivogen) according to the manufacturer's instructions. Briefly, 20 μL of supernatant was added to 180 μL of QUANTI-Blue solution and incubated at 37° C. for 15 minutes. Optical density at 620 nm was then measured using a plate reader.

The subject of test [5] is human monocytes. In words: TNF production by monocytes 24 h post-training (monocyte activation). In kind it is cell-based. The settings on record: TNF 24 h after dWGP.
Test [6] concerns bone marrow hematopoietic stem & progenitor cells (HSPC). In words: In vivo induction of trained immunity: flow cytometry of mouse bone marrow HSPC populations. The settings on record: 0.050% w/w in chow, 4 weeks. In general terms: In flow cytometry, cells or beads pass a laser one at a time.

With `C=C1[C@@H](C)[C@H]2[C@H](Cc3ccccc3)NC(=O)[C@]23[C@H](OC(C)=O)/C=C/[C@@](C)(O)C(=O)[C@@H](C)C/C=C/[C@H]3[C@@H]1O` [cytD, cytochalasin-D], the “effect of inhibitor pre-treatment on β-glucan training (TNF after LPS restimulation)” value in test [1] is given as “preferentially blocked the training effect”. For the same compound, the “effect of inhibitor on dWGP-induced loss of surface Dectin-1” value in test [2] is “blunts this effect”. Further, the “effect of inhibitor pre-treatment on dWGP-driven p-S6 / mTOR activation” value in test [3] is “blocked monocyte mTOR activation driven by dWGP”.
On to laminarin, for which the “effect of inhibitor pre-treatment on β-glucan training (TNF after LPS restimulation)” value in test [1] is listed as “more effective at all doses tested”. Also, the “blocking of BGP- or dWGP-driven NFκB-SEAP activation” value in test [4] is reported as “block Dectin-1b mediated NFκB activation”.
With `O=CC[C@@H](O)[C@H](O)[C@H](O)CO` [2DG, 2-deoxyglucose], the “effect of inhibitor pre-treatment on β-glucan training (TNF after LPS restimulation)” value in test [1] is reported as “abolished the ability of dWGP to increase LPS-restimulation responses”.
As to `Oc1cc(O)cc(/C=C/c2ccc(O)c(O)c2)c1` [PIC, picethanol], the “effect of inhibitor pre-treatment on β-glucan training (TNF after LPS restimulation)” value in test [1] was “suppressed monocyte training driven by both BGP and dWGP”. For the same compound, the “blocking of BGP- or dWGP-driven NFκB-SEAP activation” value in test [4] is “blocking NFκB activation driven by dWGP and BGP”. For the same compound, the “effect of inhibitor pre-treatment on early monocyte TNF production driven by dWGP” value in test [5] was “block traditional pro-inflammatory signaling and monocyte TNF production”. Moreover, the “effect of inhibitor pre-treatment on dWGP-driven p-S6 / mTOR activation” value in test [3] is “did not affect mTOR up-regulation”.
For Pustulan, the “NFκB-linked SEAP activity (Dectin-1b activation)” value in test [4] is “drive NFκB signaling in a dose-dependent fashion”.
Consider `Cc1ccc(S(=O)(=O)/C=C/C#N)cc1` [BAY 11-7082], for which, in test [1] (inhibitor added to monocytes prior to training with dWGP and/or BGP, LPS 10 ng/ml 6 h), the “effect of inhibitor pre-treatment on β-glucan training (TNF after LPS restimulation)” value is recorded as “abolishment of LPS-restimulation driven TNF production in trained macrophages”. Moreover, the “effect of inhibitor pre-treatment on early monocyte TNF production driven by dWGP” value in test [5] is given as “enhanced early TNF production”.
In the case of `CO/C1=C\C(C)=C\[C@@H](C)[C@@H](O)[C@@H](C)C/C(C)=C/C=C/[C@H](OC)[C@@H]([C@@H](C)[C@@H](O)[C@H](C)[C@@]2(O)C[C@@H](O)[C@H](C)[C@@H](C(C)C)O2)OC1=O` [bafilomycin A1], the “effect of inhibitor pre-treatment on dWGP-driven p-S6 / mTOR activation” value in test [3] is listed as “profound decrease in monocyte mTOR activation by dWGP”.
On to Curdlan, for which, in test [1] (monocytes exposed 24 h, matured 5 days, LPS 10 ng/ml 6 h, vs untrained), the “TNF production upon LPS restimulation (training)” value is given as “A trend toward some training was observed”. Moreover, the “NFκB-linked SEAP activity (Dectin-1b activation)” value in test [4] is “drive NFκB signaling in a dose-dependent fashion”.
With inulin, the “trained immunity-like effects (bone marrow progenitors, BMDM cytokines)” value in test [6] was “behaving similarly to control chow-fed mice”.
